Reference: publication PMC8286840, “Identifying SARS-CoV-2 antiviral compounds by screening for small molecule inhibitors of Nsp3 papain-like protease” (Biochemical Journal, 2021)
Where a name gives a salt, the structure may show the parent alone. Read-outs that look alike come from different tables or passages of the source.

Tests used:
[1] = target: T1, SARS-CoV-2 PLpro (nsp3 1564–1878) (Severe acute respiratory syndrome coronavirus 2, UniProt P0DTD1); assay: biochemical; parameters: FRET-quenched peptide (Pro3) cleavage by PLpro, 10 min pre-incubation, slope over 20 min, normalised to no-compound control; details: low concentration screen, read-out: % of control remaining
[2] = target: T1, SARS-CoV-2 PLpro (nsp3 1564–1878); assay: biochemical; parameters: FRET-quenched peptide (Pro3) cleavage by PLpro, 10 min pre-incubation, slope over 20 min, normalised to no-compound control; details: high concentration screen, read-out: % of control remaining

## O=C(O)CCc1c[nH]c2ccccc12 [3-Indolepropionic acid]
[1]; Well no.=6597
  remaining activity at 1.25 µM: 99.7%
[2]; Well no.=6597
  remaining activity at 3.75 µM: 102%

## CCC12C=CCN3CC[C@@]4(c5ccc(OC)cc5N(C)[C@H]4[C@@](O)(C(=O)OC)[C@@H]1OC(C)=O)[C@@H]32 (stereo partly drawn) [Vindoline]
[1]; Well no.=3761
  remaining activity at 1.25 µM: 96.2%
[2]; Well no.=3761
  remaining activity at 3.75 µM: 96.6%

## CC[C@H]1CN2CCc3cc(OC)c(OC)cc3[C@@H]2C[C@@H]1C[C@H]1NCCc2cc(OC)c(OC)cc21 [Emetine dihydrochloride hydrate]
[1]; Well no.=646
  remaining activity at 1.25 µM: 104%
[2]; Well no.=646
  remaining activity at 3.75 µM: 103%

## CCN(CC)CCNC(=O)c1cc(Cl)c(N)cc1OC [Metoclopramide (hydrochloride hydrate)]
[1]; Well no.=7435
  remaining activity at 1.25 µM: 106%
[2]; Well no.=7435
  remaining activity at 3.75 µM: 109%

## OCCN1CCN(CCCN2c3ccccc3C=Cc3ccccc32)CC1 [Opipramol dihydrochloride]
[1]; Well no.=5510
  remaining activity at 1.25 µM: 97.5%
[2]; Well no.=5510
  remaining activity at 3.75 µM: 101%

## COc1ccc2[nH]cc(CCNC(C)=O)c2c1 [Melatonin]
[1]; Well no.=1072
  remaining activity at 1.25 µM: 98.6%
[1]; Well no.=1665
  remaining activity at 1.25 µM: 106%
[1]; Well no.=3320
  remaining activity at 1.25 µM: 99.3%
[1]; Well no.=3990
  remaining activity at 1.25 µM: 101%
[1]; Well no.=6347
  remaining activity at 1.25 µM: 97.8%
[1]; Well no.=6565
  remaining activity at 1.25 µM: 103%
[2]; Well no.=1072
  remaining activity at 3.75 µM: 101%
[2]; Well no.=1665
  remaining activity at 3.75 µM: 107%
[2]; Well no.=3320
  remaining activity at 3.75 µM: 98.5%
[2]; Well no.=6347
  remaining activity at 3.75 µM: 102%
[2]; Well no.=6565
  remaining activity at 3.75 µM: 96.1%

## NCCSSCCN [Cystamine dihydrochloride]
[1]; Well no.=280
  remaining activity at 1.25 µM: 97%
[2]; Well no.=280
  remaining activity at 3.75 µM: 99.9%

## COc1cc2c(cc1O)CCN[C@@H]2C [Salsoline]
[1]; Well no.=3715
  remaining activity at 1.25 µM: 100%
[2]; Well no.=3715
  remaining activity at 3.75 µM: 102%

## Cc1cc(N=Nc2ccc3c(c2)CCC(=O)N3)c(N)cc1O [ZL0420]
[1]; Well no.=8468
  remaining activity at 1.25 µM: 103%
[2]; Well no.=8468
  remaining activity at 3.75 µM: 95.2%

## COc1cc2ncn(-c3cc(OCc4ccccc4C(F)(F)F)c(C(N)=O)s3)c2cc1OC [GW 843682X - 5-(5,6-Dimethoxy-1H-benzimidazol-1-yl)-3-[[2-(trifluoromethyl)phenyl]methoxy]-2-thiophenecarboxamide]
[1]; Well no.=2668
  remaining activity at 1.25 µM: 92.6%
[2]; Well no.=2668
  remaining activity at 3.75 µM: 96.9%

## CN(C)C(=O)Oc1cc(OC(=O)N(C)C)cc(C(O)CNC(C)(C)C)c1 (stereo not drawn) [5-(2-(tert-butylamino)-1-hydroxyethyl)-1,3-phenylene bis(dimethylcarbamate) hydrochloride]
[1]; Well no.=5871
  remaining activity at 1.25 µM: 104%
[2]; Well no.=5871
  remaining activity at 3.75 µM: 103%

## CO[C@H](C)[C@](O)(C(=O)OCC1=CCN2CC[C@H](O)[C@@H]12)C(C)C [Heliotrine]
[1]; Well no.=3149
  remaining activity at 1.25 µM: 101%
[2]; Well no.=3149
  remaining activity at 3.75 µM: 104%

## O=C(O)Cc1sc(-c2ccccc2)nc1-c1ccc(Cl)cc1 [Fentiazac]
[1]; Well no.=1772
  remaining activity at 1.25 µM: 100%
[2]; Well no.=1772
  remaining activity at 3.75 µM: 97.2%

## Nc1cc(N2CCCCC2)nc(N)[n+]1[O-] [Minoxidil]
[1]; Well no.=1070
  remaining activity at 1.25 µM: 93.8%
[1]; Well no.=1808
  remaining activity at 1.25 µM: 89.4%
[2]; Well no.=1070
  remaining activity at 3.75 µM: 96.2%
[2]; Well no.=1808
  remaining activity at 3.75 µM: 90.5%

## C[C@@H]1O[C@@H](OC[C@H]2O[C@@H](Oc3cc(O)c4c(c3)O[C@H](c3ccc(O)c(O)c3)CC4=O)[C@H](O)[C@@H](O)[C@@H]2O)[C@H](O)[C@H](O)[C@H]1O [Eriocitrin]
[1]; Well no.=3257
  remaining activity at 1.25 µM: 98.6%
[2]; Well no.=3257
  remaining activity at 3.75 µM: 97.1%

## CNC(C)Cc1ccccc1OC (stereo not drawn) [Methoxyphenamine (Hydrochloride)]
[1]; Well no.=8577
  remaining activity at 1.25 µM: 109%
[2]; Well no.=8577
  remaining activity at 3.75 µM: 105%

## CCCNC(C)C(=O)Nc1c(C)csc1C(=O)OC (stereo not drawn) [Articaine HCl]
[1]; Well no.=5367
  remaining activity at 1.25 µM: 95.8%
[2]; Well no.=5367
  remaining activity at 3.75 µM: 94.3%

## O=c1[nH]c(=O)n([C@H]2C[C@H](O)[C@@H](CO)O2)cc1Br [5-Bromo-2'-deoxyuridine]
[1]; Well no.=269
  remaining activity at 1.25 µM: 95.6%
[2]; Well no.=269
  remaining activity at 3.75 µM: 98.4%

## COc1cc2ncnc(Nc3ccc(F)c(Cl)c3)c2cc1OCCCN1CCOCC1 [Gefitinib]
[1]; Well no.=1579
  remaining activity at 1.25 µM: 102%
[1]; Well no.=2743
  remaining activity at 1.25 µM: 101%
[2]; Well no.=1579
  remaining activity at 3.75 µM: 102%
[2]; Well no.=2743
  remaining activity at 3.75 µM: 101%

## O=S(=O)(c1cccc2cnccc12)N1CCCNCC1 [Fasudil hydrochloride - 1-(5-Isoquinolinesulfonyl)homopiperazine hydrochloride]
[1]; Well no.=2338
  remaining activity at 1.25 µM: 97.4%
[2]; Well no.=2338
  remaining activity at 3.75 µM: 99%

## O=S(=O)(O)c1cc(O)c2c(N=Nc3c(S(=O)(=O)O)cc4cc(S(=O)(=O)O)cc(O)c4c3O)cc(S(=O)(=O)O)cc2c1 [Beryllon II]
[1]; Well no.=7982
  remaining activity at 1.25 µM: 92.8%
[2]; Well no.=7982
  remaining activity at 3.75 µM: 93.7%

## CC(C)Oc1ccc(-c2nc(-c3cccc4c3CC[C@@H]4NCCO)no2)cc1C#N [Ozanimod]
[1]; Well no.=7422
  remaining activity at 1.25 µM: 104%
[2]; Well no.=7422
  remaining activity at 3.75 µM: 106%

## CC1CCc2c(N3CCC(O)CC3)c(F)cc3c(=O)c(C(=O)O)cn1c23 (stereo not drawn) [Nadifloxacin]
[1]; Well no.=2003
  remaining activity at 1.25 µM: 96.2%
[2]; Well no.=2003
  remaining activity at 3.75 µM: 94.8%

## CCc1cc(Cl)c(OC)c(C(=O)NC[C@@H]2CCN(CC)C2)c1O [S-(-)-Eticlopride hydrochloride]
[1]; Well no.=417
  remaining activity at 1.25 µM: 102%
[2]; Well no.=417
  remaining activity at 3.75 µM: 101%

## C/C1=C/CCC(C)(O)/C=C\C(C(C)C)C(OC(=O)c2ccc(O)cc2)C1 (stereo not drawn) [Feroline]
[1]; Well no.=3493
  remaining activity at 1.25 µM: 101%
[2]; Well no.=3493
  remaining activity at 3.75 µM: 99.5%

## O=C[C@H](O)[C@@H](O)[C@H](O)[C@H](O)COP(=O)(O)O [D-Glucose 6-Phosphate]
[1]; Well no.=7263
  remaining activity at 1.25 µM: 98.2%
[2]; Well no.=7263
  remaining activity at 3.75 µM: 98.1%

## CNCC(=O)O [Sarcosine]
[1]; Well no.=6727
  remaining activity at 1.25 µM: 103%
[2]; Well no.=6727
  remaining activity at 3.75 µM: 102%

## NC[C@@H]1O[C@H](O[C@H]2[C@@H](O)[C@H](O[C@@H]3[C@@H](O)[C@H](N)C[C@H](N)[C@H]3O[C@H]3O[C@H](CO)[C@@H](O)[C@H](O)[C@H]3N)O[C@@H]2CO)[C@H](N)[C@@H](O)[C@@H]1O [Paromomycin sulfate]
[1]; Well no.=1211
  remaining activity at 1.25 µM: 99.9%
[2]; Well no.=1211
  remaining activity at 3.75 µM: 100%

## COc1ccc(Cl)cc1C(=O)NCCc1ccc(S(=O)(=O)NC(=O)NC2CCCCC2)cc1 [Glyburide]
[1]; Well no.=1806
  remaining activity at 1.25 µM: 96.5%
[2]; Well no.=1806
  remaining activity at 3.75 µM: 97.3%

## c1ccc2c(c1)OCC(CN1CCCCC1)O2 (stereo not drawn) [Piperoxan (hydrochloride)]
[1]; Well no.=7383
  remaining activity at 1.25 µM: 106%
[2]; Well no.=7383
  remaining activity at 3.75 µM: 105%

## CCCCCCOC(=O)[C@]1(O)C[C@@H]2O[C@@]1(C)n1c3ccccc3c3c4c(c5c6ccccc6n2c5c31)C(=O)NC4 [KT5720]
[1]; Well no.=2481
  remaining activity at 1.25 µM: 105%
[2]; Well no.=2481
  remaining activity at 3.75 µM: 109%
